{
  "source": "patent US12235278B2",
  "about": "“Compositions and methods for evaluation of antiplatelet drug sensitivity” (Beth Israel Deaconess Medical Center, Inc., priority 2018, dated 2025)",
  "format_in_all_cases": "cell-based",
  "key": {"[1]": {"tested_on": "Drp1-Ser616 phosphorylation", "assay": "Western blot of Drp1 Ser616 phosphorylation in platelets", "conditions": "for Drp1 phosphorylation at Ser616 elicited by the agent: platelets incubated with the agent; for Effect on SFLLRN-induced (PAR1-mediated) Drp1-Ser616 phosphorylation: platelets"}, "[2]": {"tested_on": "Drp1-Ser616 phosphorylation", "assay": "Drp1 ratio assay with chemiluminescence format", "conditions": "ADP 20 μM; for Time to maximum Drp1 ratio after exposure to agonist: arachidonic acid 500 μg/mL, SFLLRN 25 μM, elevated by 5 minutes", "procedure": "Samples were subsequently lysed and assessed by either colorimetric or chemiluminescence ELISAs. […] Samples were activated with the indicated platelet agonist [A: ADP (20 μM); […] Samples were left at room temperature for the indicated amount of time prior to freezing (−80° C.) and were subsequently analyzed using the Drp1 ratio assay with a chemiluminescence format. […] FIGS. 12A-12C show activation time studies with various platelet agonists. Platelets were exposed to agonists and subsequently analyzed using the Drp1 ratio assay with a chemiluminescence format."}, "[3]": {"tested_on": "Drp1-Ser637 phosphorylation", "assay": "Western blot of Drp1 Ser637 phosphorylation in platelets"}, "[4]": {"tested_on": "Drp1-Ser616 phosphorylation", "assay": "MAP kinase inhibition studies, ELISA of agonist-induced Drp1-Ser616 phosphorylation in twice washed platelets", "conditions": "agonists SFLLRN, U46619, collagen, ADP or AYPGKF; SB203580 20 μM, PD0325901 5 μM, SP600125 5 μM", "procedure": "Using twice washed platelets, 400 μL aliquots were incubated at 37° C. for 30 min with SB203580 (20 μM), PD0325901 (5 μM), SP600125 (5 μM) or left untreated and then activated with respective agonist for 10 min at 37° C. Subsequently, 100 μL of 5×RIPA buffer was added and samples were lysed on ice for minimum of 15 min. Samples were stored at −80° C. until assayed by ELISA.\n(§1) Capture antibody (Ms Drp1 mAb) diluted in Tris-buffered saline (TBS) was incubated on plates at RT (2 hrs) or at 4° C. overnight. […] Wells were blocked with 3% BSA in TBST for a minimum of 1.5 hrs. […] Wells were again washed with TBST and incubated with either Rb Drp1 or p-Drp1 (Ser616) mAb at RT for 1 hr."}, "[5]": {"tested_on": "Drp1-Ser616 phosphorylation", "assay": "Drp1-Ser616 phosphorylation assay in whole blood", "conditions": "for Effect on SFLLRN-induced phospho-Drp1-Ser616 signal: whole blood; for Stimulation of Drp1-Ser616 phosphorylation: whole blood (thrombin: whole blood and platelet rich plasma)"}, "[6]": {"tested_on": "Drp1-Ser616 phosphorylation", "assay": "Arachidonic acid-induced Drp1-Ser616 phosphorylation in platelets, ELISA dose response", "conditions": "Platelet; [arachidonic acid]=10 μg/mL; read-out: IC50, inhibition of arachidonic acid-induced phosphorylation of Drp1-Ser616", "procedure": "Dilutions of Tyrode's buffer+3 mM aspirin were prepared. A modified platelet wash protocol was then performed. PRP [supplemented with 20% ACD (v/v) and PGE1 (1 μM)] was spun at 800 g for 12 min. After removal of the supernatant, platelet pellet was resuspended in Tyrode's buffer and allowed to rest at 37° C. for minimum of 25 min. Platelets were counted by Hemavet and were again supplemented with ACD and PGE1 before being aliquoted into microcentrifuge tubes and spun at 800 g for 12 min. Aliquots were of sufficient volume to permit a final platelet count of approximately 4×10^5/μL when platelet pellet was resuspended in 400 μL of Tyrode's buffer or Tyrode's buffer/aspirin dilution. After resuspension, samples were incubated at 37° C. for 1 hr before being activated for 10 min at 37° C. with arachidonic acid (Bio Data Corp. Horsham, PA) at a final concentration of 10 μg/mL. Samples were lysed with 100 μL 5×RIPA buffer on ice for a minimum of 15 min before being stored at −80° C. until assayed by ELISA.\nas §1"}, "[7]": {"tested_on": "Drp1-Ser616 phosphorylation", "assay": "SFLLRN-induced Drp1-Ser616 phosphorylation in washed platelets, ELISA dose response (phospho-Drp1-Ser616/total Drp1)", "conditions": "Platelet; read-out: IC50, inhibition of SFLLRN-induced Drp1-Ser616 phosphorylation", "procedure": "Serial dilutions of Vorapaxar and Cangrelor were prepared in DMSO. […] Vehicle only samples were also prepared and incubated at 37° C. Samples were subsequently lysed with 5×RIPA buffer and stored at −80° C. until assayed by ELISA.\nas §1"}, "platelet aggregation": {"tested_on": "platelet aggregation", "assay": "Platelet aggregometry, ADP-activated platelets", "conditions": "ADP 20 μM, compared with Drp1 ratio assay"}},
  "note": "Entries after “also recorded” stand apart in the source; their conditions may differ.",
  "data": [
    {"compound": "Nc1ncnc2c1ncn2[C@@H]1O[C@H](COP(=O)(O)OP(=O)(O)O)[C@@H](O)[C@H]1O", "note": "[ADP]", "values": [
      {"measurement": "Drp1 phosphorylation at Ser616 elicited by the agent", "setting": "[1]", "result": "resulted in 5616-Drp1 phosphorylation"},
      {"measurement": "Time to maximum Drp1 ratio after exposure to agonist", "setting": "[2]", "result": "approximately 12. 5 minutes"}
    ]},
    {"compound": "CCCCCCOC(=O)[C@]1(O)C[C@@H]2O[C@@]1(C)n1c3ccccc3c3c4c(c5c6ccccc6n2c5c31)C(=O)NC4", "note": "[KT5720]", "values": [
      {"measurement": "Effect on forskolin-mediated Drp1-Ser637 phosphorylation", "setting": "[3]", "result": "completely abolished"}
    ]},
    {"compound": "CNc1nc(Cl)nc2c1ncn2CC(COC(=O)C(C)(C)C)COC(=O)C(C)(C)C", "note": "[MRS 2395]", "values": [
      {"measurement": "Effect on ADP-induced Drp1-Ser616 phosphorylation", "setting": "[1]; platelets incubated with ADP", "result": "inhibited"}
    ]},
    {"compound": "O=C(NOC[C@H](O)CO)c1ccc(F)c(F)c1Nc1ccc(I)cc1F", "note": "[PD0325901]", "values": [
      {"measurement": "Effect on agonist-induced Drp1-Ser616 phosphorylation", "setting": "[4]", "result": "modest inhibition"}
    ]},
    {"compound": "Cn1cc(C2=C(c3cn(CCCSC(=N)N)c4ccccc34)C(=O)NC2=O)c2ccccc21", "note": "[Ro 31-8220]", "values": [
      {"measurement": "Effect on SFLLRN-induced (PAR1-mediated) Drp1-Ser616 phosphorylation", "setting": "[1]", "result": "failed to inhibit"}
    ]},
    {"compound": "C[S+]([O-])c1ccc(-c2nc(-c3ccncc3)c(-c3ccc(F)cc3)[nH]2)cc1", "note": "(stereo not shown) [SB203580]", "values": [
      {"measurement": "Effect on agonist-induced Drp1-Ser616 phosphorylation", "setting": "[4]", "result": "potently blocked"},
      {"measurement": "Effect on SFLLRN-induced (PAR1-mediated) Drp1-Ser616 phosphorylation", "setting": "[1]", "result": "inhibited"},
      {"measurement": "Effect on SFLLRN-induced phospho-Drp1-Ser616 signal", "setting": "[5]", "result": "inhibited"}
    ]},
    {"compound": "Oc1c2ccccc2c2c3c(cccc13)N=N2", "note": "[SP600125]", "values": [
      {"measurement": "Effect on agonist-induced Drp1-Ser616 phosphorylation", "setting": "[4]", "result": "failed to inhibit"}
    ]},
    {"compound": "CCCCC[C@H](O)/C=C/[C@@H]1[C@@H](C/C=C\\CCCC(=O)O)[C@H]2CO[C@@H]1C2", "note": "[U46619]", "values": [
      {"measurement": "Drp1 phosphorylation at Ser616 elicited by the agent", "setting": "[1]", "result": "Phosphorylation of Drp1 at S616 was observed"},
      {"measurement": "Stimulation of Drp1-Ser616 phosphorylation", "setting": "[5]", "result": "significant stimulation"}
    ]},
    {"compound": "CCCCC/C=C\\C/C=C\\C/C=C\\C/C=C\\CCCC(=O)O", "note": "[arachidonic acid]", "values": [
      {"measurement": "Time to maximum Drp1 ratio after exposure to agonist", "setting": "[2]", "result": "approximately 12. 5 minutes"},
      {"measurement": "Stimulation of Drp1-Ser616 phosphorylation", "setting": "[5]", "result": "significant stimulation"}
    ]},
    {"compound": "CC(=O)Oc1ccccc1C(=O)O", "note": "[aspirin, acetylsalicylic acid]", "values": [
      {"measurement": "IC50", "setting": "[6]", "result": "~1000", "unit": "nM"}
    ]},
    {"compound": "CSCCNc1nc(SCCC(F)(F)F)nc2c1ncn2[C@@H]1O[C@H](COP(=O)(O)OP(=O)(O)C(Cl)(Cl)P(=O)(O)O)[C@@H](O)[C@H]1O", "note": "[cangrelor]", "values": [
      {"measurement": "IC50", "setting": "[7]", "result": "~2", "unit": "nM"},
      {"measurement": "Sensitivity of Drp1 ratio assay to inhibition", "setting": "[2]; compared with platelet aggregometry", "result": "equally sensitive"},
      {"measurement": "Sensitivity of platelet aggregometry to inhibition", "setting": "platelet aggregation", "result": "equally sensitive"}
    ]},
    {"compound": "O=C1CCc2cc(OCCCCc3nnnn3C3CCCCC3)ccc2N1", "note": "[cilostazol]", "values": [
      {"measurement": "Effect on SFLLRN-induced (PAR1-mediated) Drp1-Ser616 phosphorylation", "setting": "[1]", "result": "blocks; also recorded: sensitive; also recorded: prevents phophorylation at Ser616"}
    ]},
    {"compound": "COC(=O)[C@H](c1ccccc1Cl)N1CCc2sccc2C1", "note": "[clopidogrel]", "values": [
      {"measurement": "Effect on SFLLRN-induced phospho-Drp1-Ser616 signal", "setting": "[5]", "result": "inhibited"}
    ]},
    {"compound": "CCOC(=O)N[C@@H]1CC[C@@H]2[C@@H](C1)C[C@H]1C(=O)O[C@H](C)[C@H]1[C@H]2/C=C/c1ccc(-c2cccc(F)c2)cn1", "note": "[vorapaxar]", "values": [
      {"measurement": "IC50", "setting": "[7]", "result": "~5", "unit": "nM"},
      {"measurement": "Effect on SFLLRN-induced phospho-Drp1-Ser616 signal", "setting": "[5]", "result": "inhibited"}
    ]},
    {"compound": "SFLLRN", "values": [
      {"measurement": "Drp1 phosphorylation at Ser616 elicited by the agent", "setting": "[1]", "result": "Phosphorylation of Drp1 at S616 was observed"},
      {"measurement": "Time to maximum Drp1 ratio after exposure to agonist", "setting": "[2]", "result": "approximately 12. 5 minutes"},
      {"measurement": "Time at which phospho-Drp1-Ser616 signal reaches peak", "setting": "[5]; following activation of platelets by SFLLRN (FIG. 6C)", "result": 15, "unit": "min"},
      {"measurement": "Increase in phospho-Drp1-Ser616 to total Drp1", "setting": "[5]; stimulation of whole blood", "result": "greater than 2 fold"}
    ]},
    {"compound": "collagen", "values": [
      {"measurement": "Drp1 phosphorylation at Ser616 elicited by the agent", "setting": "[1]", "result": "Phosphorylation of Drp1 at S616 was observed"}
    ]},
    {"compound": "thrombin", "values": [
      {"measurement": "Stimulation of Drp1-Ser616 phosphorylation", "setting": "[5]", "result": "significant increases"}
    ]}
  ]
}
